# Data published in paper PMC10913051, “Bacterial Lactonases ZenA with Noncanonical Structural Features Hydrolyze the Mycotoxin Zearalenone” (ACS Catalysis, 2024).
# B1: ZEN lactonase ZenA_(Scfl) of Streptomyces coelicoflavus (enzyme)
# chain: MVTSPALRDVHVPHAYPEQQVDLGEITMNYAEAGDPDRPAVLLIPEQTGSWWSYEEAMGLLSEHFHVYAVDLRGQGRSSWTPKRYSLDNFGNDLVRFIALVVKRPVVVAGNSSGGVLAAWLSAYSMPGQLRGVLCEDPPFFASELVPAHGHSVRQGAGPVFELFRTYLGDQWSVGDWEGFCRAAGASASPMARSFVADGIPQHLQEYDPEWARVFYEGTVGLSCPHERMLGQVKTPVLLTHHMRGIDPETGNLLGALSDEQALRARRLMDSAGVTVDYESVPDASHMMHQSAPARYVEIFTRWAAALAP
# B2: ZEN lactonase ZenARe of Rhodococcus erythropolis PFA D8-1 (enzyme)
# chain: MAEEGTRSEAADAATQARQLPDSRNIFVSHRFPERQVDLGEVVMNFAEAGSPDNPALLLLPEQTGSWWSYEPVMGLLAENFHVFAVDIRGQGRSTWTPRRYSLDNFGNDLVRFIALVIKRPVVVAGNSSGGLLAAWLSAYAMPGQIRAALCEDAPFFASELVPAYGHSVLQAAGPAFELYRDFLGDQWSIGDWKGFVEAAKASPAKAMQLFPTPDEAPQNLKEYDPEWGRAFFEGTVALHCPHDRMLSQVKTPILITHHARTIDPETGELLGALSDLQAEHAQDIIRSAGVRVDYQSHPDALHMMHLFDPARYAEILTSWSATLPAND
# Columns and labels:
# ZenAScfl H286Y = target: T1, ZenAScfl H286Y (Streptomyces coelicoflavus, UniProt A0A6N9UBA7, H286Y); test: X-ray crystal structure, cocrystallized with […] ZEN, […] Å; type: binding
# T1 construct: gene G3I46_00910; C-terminal 6xHis-tag
# ZenARe [1] = target: T2, ZenARe; test: X-ray crystal structure (cocrystallized with ZEN, […] Å); stopped-flow tryptophan fluorescence of product binding ([…] °C, KP,net); parameters: species or system Rhodococcus erythropolis
# T2 construct: gene zenA; C-terminal 6xHis-tag
# ZenARe [2] = target: T2, ZenARe; test: stopped-flow tryptophan fluorescence ([…] °C, net dissociation constant of two-step binding); steady-state KM […]; parameters: species or system Rhodococcus erythropolis
# [3] = target: the molecule itself; test: SEC-MALS; size exclusion chromatography and multiangle light scattering of the 6xHis-tagged enzyme; conditions in the Supporting Information
# T1 sequence (A0A6N9UBA7 entry or part of it H286Y): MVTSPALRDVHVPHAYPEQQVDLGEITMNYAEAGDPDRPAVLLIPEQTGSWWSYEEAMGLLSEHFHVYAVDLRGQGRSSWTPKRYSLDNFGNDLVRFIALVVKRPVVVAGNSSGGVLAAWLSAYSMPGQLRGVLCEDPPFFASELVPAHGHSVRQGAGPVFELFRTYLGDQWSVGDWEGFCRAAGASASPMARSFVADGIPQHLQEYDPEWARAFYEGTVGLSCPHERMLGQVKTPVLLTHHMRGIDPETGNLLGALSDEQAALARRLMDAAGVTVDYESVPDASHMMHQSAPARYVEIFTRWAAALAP
molecule,measurement,setting,value
"C[C@H](O)CCCC(=O)CCC/C=C/c1cc(O)cc(O)c1C(=O)O [HZEN, (S,E)-2,4-dihydroxy-6-(10-hydroxy-6-oxoundec-1-en-1-yl)benzoic acid]","X-ray crystal structure, cocrystallized with 5 mM ZEN, 1.53 Å",ZenAScfl H286Y,a subsequently calculated Polder map revealed a better fit of product HZEN in the active site
same,Kd,ZenARe [1],10 ± 1 µM
"C[C@H]1CCCC(=O)CCC/C=C/c2cc(O)cc(O)c2C(=O)O1 [ZEN, (S,E)-14,16-dihydroxy-3-methyl-3,4,5,6,9,10-hexahydro-1H-benzo[c][1]oxacyclotetradecine-1,7(8H)-dione]",Kd,ZenARe [2],0.21 ± 0.04 µM
B1,stoichiometry N,[3],4
B2,stoichiometry N,[3],2
